Laboratory results from patent US5885985A, “Guanidine derivatives useful in therapy” (priority 1993, dated 1999).
Counter-ions that a name gives are not always drawn.

Key:
[1] = biological target: T1, neuronal isoform of nitric oxide synthetase (Rattus norvegicus, UniProt P29476); assay: biochemical; settings: enzyme from rat hippocampus or cerebellum; 22° C., 10 minutes; read-out: IC50 in the screen for activity against the neuronal isoform of nitric oxide synthetase
T1 construct: Enzyme was isolated from rat hippocampus or cerebellum; from tissue; host or cells: hippocampus or cerebellum of male Sprague-Dawley rat (20,000 g supernatant)

[2] = biological target: T2, macrophage isoform of nitric oxide synthetase (Mus musculus, UniProt P29477); assay: Screen for Macrophage Nitric Oxide Synthase Inhibition Activity; format: biochemical; settings: lysate of induced murine J774A-1 cells; 1 hour at room temperature; read-out: IC50 in the screen for activity against the macrophage isoform of nitric oxide synthetase
T2 construct: endogenous in cells; host or cells: murine macrophage cell line J774A-1 (from laboratories of the Imperial Cancer Research Fund), induced with LPS and IFN-gamma
Text: The enzyme nitric oxide synthetase has a number of isoforms and compounds of formula I, or a pharmaceutically acceptable salt thereof, may be screened for nitric oxide synthetase inhibition activity by procedures based on those of Bredt and Snyder in Proc. Natl. Acad. Sci. (1990) 87, 682-685 and Forstermann et. al. (1992) Eur. J. Pharm. 225, 161-165. Nitric oxide synthetase converts ^3 H-L-arginine to ^3 H-L-citrulline which can be separated by cation exchange chromatography and quantified by liquid scintillation counting.
(2) Screen for Macrophage Nitric Oxide Synthase Inhibition Activity
Enzyme is prepared, after induction, from the cultured murine macrophage cell line J774A-1 (obtained from laboratories of the Imperial Cancer Research Fund). J774A-1 cells are cultured in Dulbecco's Modified Eagles Medium (DMEM) supplemented with 10% foetal bovine serum, 4 mM L-glutamine and antibiotics (100 units/ml penicillin G, 100 μg/ml streptomycin & 0.25 μg/ml amphotericin B). Cells are routinely grown in […] flasks containing 35 ml medium kept at 37° C. and in a humidified atmosphere containing 5% CO2.
Nitric oxide synthase is produced by cells in response to inferferon-γ(IFNγ) and lipopolysaccharide (LPS). […]
Labelled L-citrulline is separated from labelled L-arginine using Dowex AG-50W. […] After allowing the samples to dry the L-citrulline is quantified by scintillation counting. […]

[3] = biological target: T3, endothelial isoform of nitric oxide synthetase (Homo sapiens, UniProt P29474); assay: Screen for Endothelial Nitric Oxide Synthase Inhibition Activity; format: biochemical
T3 construct: Enzyme may be isolated from human umbilical vein endothelial cells (HUVECs); host or cells: human umbilical vein endothelial cells (HUVECs), CHAPS-solubilised particulate fraction
T3 sequence (P29474 2-1203): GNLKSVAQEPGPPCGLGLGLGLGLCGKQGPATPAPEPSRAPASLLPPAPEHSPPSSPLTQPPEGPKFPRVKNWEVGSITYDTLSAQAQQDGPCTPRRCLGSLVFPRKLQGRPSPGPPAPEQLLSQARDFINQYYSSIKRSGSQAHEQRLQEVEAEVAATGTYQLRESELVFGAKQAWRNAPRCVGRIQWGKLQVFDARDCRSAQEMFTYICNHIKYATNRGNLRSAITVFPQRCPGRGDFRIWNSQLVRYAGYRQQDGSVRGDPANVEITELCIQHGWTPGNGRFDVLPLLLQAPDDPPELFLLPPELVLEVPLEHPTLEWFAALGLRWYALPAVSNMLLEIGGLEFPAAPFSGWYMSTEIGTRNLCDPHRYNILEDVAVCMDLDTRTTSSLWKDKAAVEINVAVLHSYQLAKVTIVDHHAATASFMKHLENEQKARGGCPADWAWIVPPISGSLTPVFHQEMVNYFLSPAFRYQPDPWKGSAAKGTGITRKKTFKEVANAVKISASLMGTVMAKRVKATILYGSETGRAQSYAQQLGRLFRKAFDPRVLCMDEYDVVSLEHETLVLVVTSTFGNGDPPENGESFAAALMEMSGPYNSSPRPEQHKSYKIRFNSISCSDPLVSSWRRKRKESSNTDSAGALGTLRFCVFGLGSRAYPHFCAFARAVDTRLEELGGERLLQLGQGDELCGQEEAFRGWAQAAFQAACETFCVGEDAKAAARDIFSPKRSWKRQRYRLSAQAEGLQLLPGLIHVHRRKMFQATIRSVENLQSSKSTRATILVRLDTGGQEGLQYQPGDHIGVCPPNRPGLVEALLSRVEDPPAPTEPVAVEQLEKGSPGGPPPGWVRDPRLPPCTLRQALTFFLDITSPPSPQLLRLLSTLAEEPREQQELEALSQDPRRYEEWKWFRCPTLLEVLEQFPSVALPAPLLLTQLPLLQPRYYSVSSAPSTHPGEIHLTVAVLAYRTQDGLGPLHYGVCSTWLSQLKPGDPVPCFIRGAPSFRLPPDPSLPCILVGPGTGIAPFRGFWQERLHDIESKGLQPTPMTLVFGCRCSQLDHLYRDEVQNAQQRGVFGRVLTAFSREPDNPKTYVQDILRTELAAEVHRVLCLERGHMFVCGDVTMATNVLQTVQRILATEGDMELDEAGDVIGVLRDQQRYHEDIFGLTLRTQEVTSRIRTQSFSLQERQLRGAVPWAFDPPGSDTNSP

T1 sequence (P29476 whole entry, canonical isoform): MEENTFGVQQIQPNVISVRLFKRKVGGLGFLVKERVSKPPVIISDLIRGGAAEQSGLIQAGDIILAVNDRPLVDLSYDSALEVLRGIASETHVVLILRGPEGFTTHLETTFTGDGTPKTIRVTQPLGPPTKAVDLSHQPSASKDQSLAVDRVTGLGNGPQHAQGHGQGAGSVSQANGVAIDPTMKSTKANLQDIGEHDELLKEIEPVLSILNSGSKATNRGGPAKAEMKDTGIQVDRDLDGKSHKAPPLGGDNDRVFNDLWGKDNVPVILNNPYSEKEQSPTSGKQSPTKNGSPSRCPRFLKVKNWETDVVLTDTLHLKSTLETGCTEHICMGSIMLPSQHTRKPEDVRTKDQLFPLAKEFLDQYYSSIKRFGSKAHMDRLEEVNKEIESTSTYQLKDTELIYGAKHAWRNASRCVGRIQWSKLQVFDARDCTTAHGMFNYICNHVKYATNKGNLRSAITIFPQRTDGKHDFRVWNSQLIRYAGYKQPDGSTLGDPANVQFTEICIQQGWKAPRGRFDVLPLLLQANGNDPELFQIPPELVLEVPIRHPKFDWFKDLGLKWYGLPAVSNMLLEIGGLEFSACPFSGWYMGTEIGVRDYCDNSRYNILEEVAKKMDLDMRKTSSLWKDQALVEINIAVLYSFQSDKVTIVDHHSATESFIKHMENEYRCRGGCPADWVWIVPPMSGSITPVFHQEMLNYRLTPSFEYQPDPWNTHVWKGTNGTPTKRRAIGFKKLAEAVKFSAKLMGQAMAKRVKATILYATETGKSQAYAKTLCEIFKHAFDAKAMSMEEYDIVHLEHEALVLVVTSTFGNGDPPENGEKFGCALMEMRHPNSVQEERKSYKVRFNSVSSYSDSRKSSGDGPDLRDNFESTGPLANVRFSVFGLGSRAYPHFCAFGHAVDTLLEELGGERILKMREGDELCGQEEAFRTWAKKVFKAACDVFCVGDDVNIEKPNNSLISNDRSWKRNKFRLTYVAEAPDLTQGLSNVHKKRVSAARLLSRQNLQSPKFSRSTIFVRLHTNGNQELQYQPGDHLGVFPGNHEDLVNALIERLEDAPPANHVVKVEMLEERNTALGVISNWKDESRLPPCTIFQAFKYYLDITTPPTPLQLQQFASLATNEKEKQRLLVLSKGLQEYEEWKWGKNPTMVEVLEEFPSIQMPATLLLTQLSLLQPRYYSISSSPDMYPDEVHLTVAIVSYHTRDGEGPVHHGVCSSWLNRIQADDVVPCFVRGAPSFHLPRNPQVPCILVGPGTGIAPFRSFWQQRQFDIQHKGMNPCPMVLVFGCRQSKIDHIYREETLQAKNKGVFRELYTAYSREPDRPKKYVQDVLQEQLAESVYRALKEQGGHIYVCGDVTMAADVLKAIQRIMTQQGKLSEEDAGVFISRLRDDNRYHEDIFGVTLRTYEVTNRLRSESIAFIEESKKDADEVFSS

IC50 [1] | IC50 [2] | IC50 ([3]; enzyme from HUVECs, 22° C., 10 minutes, read-out: IC50 in the screen for activity against the endothelial isoform of nitric oxide synthetase) | inhibition at 1 µM ([3]; at a concentration of 1 μM, reference standard) | Compound
< 10 µM | > 100 µM | > 100 µM |  | CC(=O)Nc1cccc(NC(=N)N2CCCC2)c1 [Example 1, N-(3-((methylcarbonyl)amino)phenyl)-1-pyrrolidinecarboximidamide monohydrochloride]
 |  |  | 70 to 90% | N=C(NCCC[C@H](N)C(=O)O)N[N+](=O)[O-] [N-nitro-L-arginine, reference compound]
